The source of these data is US8822171B1, “Methods for screening for inhibitors of tau phosphorylation by casein kinase I” (priority 2003, dated 2014).

The experiment deals with Rat and human cortical neurons. As to the kind of experiment: Amyloid beta treatment of neurons; phosphotyrosine immunoprecipitation and Western blot with tau antibodies. Type of experiment: cell-based. The note with it: neurons treated with Aβ peptide for 1-10 min. The method, then: Rat and human cortical neurons were treated with Aβ peptide (25-35) or reverse Aβ peptide (35-25) for 1-10 min. Proteins containing phosphotyrosine were immunoprecipitated and separated by SDS-PAGE. Western blots of heat-stable extracts of neuronal cultures and immunoprecipitates were probed with antibodies to tau.

As for “Aβ peptide (25-35) (GSNKGAIIGLM; Amyloid-beta protein 42; UniProt P05067 696-706, looked up, fragment) [amyloid β-peptide fragment 25-35 used to treat rat and human cortical neurons]”, the “increase in phosphotyrosine in tau relative to basal level” value is “approximately four times the basal level” and the “tyrosine phosphorylation of neuronal proteins including tau” value is given as “increased tyrosine phosphorylation”.
